Laboratory results reported in patent US7795241B2, “Derivative prodrugs of ethinyl estradiol” (Warner Chilcott Company, LLC, priority 2005, dated 2010).

Tests used:
[1] = Stability at 40° C./75% RH, prodrug assayed for degradation to ethinyl estradiol (HPLC); type: physicochemical; conditions: prodrug remaining; for Assay T = 2 W: 2 weeks; for Assay T = 0: T = 0 months; for Assay T = 1 M: 1 month; for Assay T = 6 M: 6 months
Protocol: Solubility was performed in water. […] The time-points for stability were T=0 months, T=2 weeks, T=1 month, T=3 months and T=6 months.
The following outlines the conditions utilized for analysis of this prodrug. Analysis was conducted using High-Performance Liquid Chromatography (HPLC).
The following outlines the conditions utilized for analysis of this prodrug. Analysis was conducted using HPLC.
The following outlines the conditions utilized for analysis of the prodrug. Analysis was conducted using HPLC.

[2] = Hydrolysis to the parent drug ethinyl estradiol (0.5N NaOH, HPLC quantification); type: physicochemical; conditions: 5 min, prodrug solution + water + 0.5N NaOH
Protocol: Hydrolysis studies refer to the rate of hydrolysis to the parent drug, ethinyl estradiol. Hydrolysis was conducted in the following manner: • (1) 1 mL of a solution containing the prodrug, 2.8 mL of water and 0.1 mL of 0.5N NaOH were combined; • (2) the resulting solution was vortexed for 10 seconds; • (3) the mixture was then left to stand for specific time intervals (e.g., 5 minutes, 15 minutes, etc.); • (4) the mixture was then neutralized with 0.1 mL of a buffer; and • (5) the solutions were finally injected to quantify the disappearance of the prodrug and the formation of the parent compound.

[3] = listed as ethinyl estradiol acetoxy acetate
[4] = listed as ethinyl estradiol lactate acetate

| Compound | Assay T = 2 W [1] | Assay T = 0 [1] | Assay T = 1 M [1] | Assay T = 1 M [1, 3] | Hydrolysis (to ethinyl estradiol) [2] | Hydrolysis (to ethinyl estradiol) [2, 3] | Assay T = 3 M ([1]; 3 months) | Assay T = 6 M [1] | Assay T = 6 M [1, 4] | Hydrolysis (to ethinyl estradiol) [2, 4] |
| --- | --- | --- | --- | --- | --- | --- | --- | --- | --- | --- |
| C#CC1(O)CC[C@H]2[C@@H]3CCc4cc(OC(=O)[C@@H]5CCCN5C(C)=O)ccc4[C@H]3CC[C@@]21C (stereo partly drawn) [Ethinyl Estradiol N-Acetyl Prolinate, ethinyl estradiol N-acetyl proline] | 96.6% | 97.2% | – | – | – | – | – | – | – | – |
| ethinyl estradiol acetoxy acetate | 97.2% | 97.8% | 97.0% | 97% | 100% (5 min) | 100% | – | – | – | – |
| ethinyl estradiol lactate-acetate | – | 94.43% | 93.67% | – | 100% (5 min) | – | 95.91% | 95.89% | 95.9% | 100% |
